Data: patent US9546159B2, “N-substituted 3,4-bis (catechol) pyrrole compounds, and the preparation and use thereof in the treatment of cancer” (Centre National De La Recherche Scientifique (CNRS), priority 2012, dated 2017)

Legend:
Assay type in all cases: cell-based
[1] = test system: HCT-116 cells; assay: cell cycle flow cytometry analysis; conditions: HCT-116, 24 hours, 30 and 50 nM
Protocol: This effect is significant after 24 hours of exposure of the cells to compound (1) used at the 30 and 50 nM concentrations (FIG. 4).

[2] = test system: normal human cells; assay: specificity of action: normal human cells versus cancer cells; conditions: in vitro, concentrations encompassing the IC50
From the text: (§1) In order to determine the specificity of action of compound (1) on cancer cells, we evaluated the effect thereof with respect to normal human HUVEC, NHDF and HFDPC cells and the HCT-116, U87 and K652 cancer cell annotations.
The IC50 values are thus up to 300 times higher for normal cells compared to those obtained for cancer cells.

[3] = test system: protein LC3-II in HCT-116 cells; assay: autophagy: Western Blot of LC3-II; conditions: HCT-116, 24 hours, 5 nM to 100 nm
Protocol: In the aim of determining whether the stoppage of the cell cycle induced by compound (1) induces an autophagic reaction, the HCT-116 cells were treated with compound (1) at different doses for 24 hours. The cell extracts then underwent Western Blot analysis in order to view the expression of the protein LC3-II. Indeed, the protein LC3 exists in the cell either in cytosolic form (LC3-I) or associated with phagosomes (LC3-II). The latter is the marker of the autophagic reaction.

[4] = test system: HCT-116 cells; assay: mitochondrial transmembrane potential (JC-1 probe, flow cytometry); conditions: HCT-116, 24 hours, 25 nM to 100 nM
Protocol: The study of the mitochondrial transmembrane potential, Δψm, was conducted by flow cytometry, using the JC-1 probe (MitoProbe™ JC-1 assay, Molecular Probes). JC-1 is a lipophilic […] compound which selectively penetrates the mitochondria, the colour whereof changes from green to red when the transmembrane potential increases.

[5] = test system: HCT-116 cells; assay: counting live cells after trypan blue staining
Protocol: The effect of compound (1) on cell growth was described in more detail on the HCT-116 cell line. This study was conducted as a function of the concentration and exposure time of the cells to the molecule under test (24 hrs, 48 hrs and 72 hrs) by counting the number of live cells after excluding dead cells by means of trypan blue staining.
FIG. 2 represents the effect of compound (I) on the number and viability of HCT-116 cells as a function of the concentration thereof and the treatment time.

[6] = test system: caspases 3 and 7 in HCT-116 cells; assay: caspases 3 and 7 activity (Apo-ONE test); conditions: HCT-116, 24 hours, 5 nM to 75 nM
Protocol: The activity of caspases 3 and 7, marker enzymes of apoptosis, was measured using the Apo-ONE (Promega) test after treating HCT-116 cells with compound (1) at concentrations varying from 5 nM to 75 nM.

[7] = test system: Akt protein serine 473 phosphorylation, FOXO3, peroxiredoxin 1 in HCT-116 cells; assay: survival pathway PI3 kinase-Akt-Foxo Western Blot; conditions: HCT-116, 24 hours
Protocol: In view of the stoppage of the cell cycle in the G0/G1 phase associated with an autophagic response in the absence of apoptosis following treatment with compound (1), we studied the action of this compound on the survival pathway involving PI3 kinase-Akt-Foxo. This signalling pathway is very frequently found to be disrupted (by stimulation) in a large number of cancer cells and contributes to the survival thereof.
Indeed, HCT-116 cells were exposed for 24 hours to the action of compound (1) at concentrations varying from 5 nM to 100 nm.

[8] = test system: intracellular H2O2 in HCT-116 cells; assay: intracellular H2O2 concentration (DCF-DA, flow cytometry)
From the text: The protein peroxiredoxin is an enzyme having a peroxidase activity, controlling the intracellular hydrogen peroxide (H2O2) concentration. Therefore, we evaluated the effect of compound (1) on the intracellular H2O2 concentration, using DCF-DA (2′,7′-dichlorofluorescein diacetate, Sigma) as a marker of intracellular H2O2. Hydrogen peroxide is an intracellular second messenger. It regulates, according to the concentration thereof, numerous functions such as proliferation or apoptosis. A reduction of the concentration thereof is associated with a decrease in proliferation.

[9] = test system: K562 (myeloid leukaemia); assay: cell growth test (CellTiter-Blue Cell Viability Assay); conditions: Homo sapiens; K562, 72 hours of treatment; read-out: IC50 (concentration of compound inducing a 50% reduction of cell growth)
Protocol: (§2) The biological activity of compound (1) was studied in vitro on 3 different cancer cell lines: • HCT-116 (colorectal carcinoma) • U87 (glioblastoma) • K562 (myeloid leukaemia) and on 3 normal non-cancerous cell types: • HUVEC (human umbilical vascular endothelial cells) • NHDF (human dermal fibroblasts) • HFDPC (human hair follicle dermal papilla cells).
(§3) The cells selected for this study were incubated at 37° in the presence of compound (1) added in the culture medium at different concentrations and at different times.
(§4) The effect of compound (1) on HCT-116, U87 and K562 cell growth was evaluated using a cell growth test (CellTiter-Blue™ m Cell Viability Assay, Promega). The growth curves and the IC50 values (concentration of compound inducing a 50% reduction of cell growth) determined after 72 hours of cell treatment with compound (1) are presented in FIG. 1. They are 30 nm for HCT-116 cells, 45 nM for U87 cells and 70 nM for K562.

[10] = test system: HCT-116 cells (colorectal carcinoma); assay: as above; conditions: Homo sapiens, 72 hours of treatment, read-out: IC50 (concentration of compound inducing a 50% reduction of cell growth)
Protocol: as §2, §3, §4

[11] = test system: U87 cells (glioblastoma); assay: as above; conditions: Homo sapiens, U-87 MG, 72 hours of treatment, read-out: IC50 (concentration of compound inducing a 50% reduction of cell growth)
Protocol: as §2, §3, §4

[12] = test system: HUVEC cells (human umbilical vascular endothelial cells); assay: cell growth, normal cells; conditions: 72 hours of treatment
Protocol: as §2, §3, §4, §1

[13] = test system: HFDPC (human hair follicle dermal papilla cells); assay: cell growth, normal cells; conditions: 72 hours of treatment
Protocol: as §2, §3, §4, §1

[14] = test system: NHDF cells (human dermal fibroblasts); assay: cell growth, normal cells; conditions: 72 hours of treatment
Protocol: as §2, §3, §4, §1

[15] = test system: proteins p21 and p27 in HCT-116 cells; assay: Western Blot of proteins p21 and p27; conditions: HCT-116, 24 hours
Protocol: The gene of the protein p27 is described as being regulated by FOXO3, whereas that of the protein p21 is controlled by the p53 transcription factor, stimulated inter alia by oxidative stress. The HCT-116 cells were treated with compound (1) for 24 hours. The cell extracts were then analysed by Western Blot.

O=[N+]([O-])c1cc(-c2cn(CCCN3CCCCCCCCCCCC3)cc2-c2cc(O)c(O)c([N+](=O)[O-])c2)cc(O)c1O [compound (1), 5,5′-(1-(3-(Azacyclotridecan-1-yl)propyl)-1H-pyrrole-3,4-diyl)bis(3-nitrobenzene-1,2-diol)]
effect on the cell cycle [1]: blocks cell division in the G0/G1 phase
cytotoxicity with respect to normal human cells [2]: does not exhibit any cytotoxicity
expression of LC3-II [3]: increase in the expression of LC3-II
mitochondrial transmembrane potential Δψm [4]: does not modify Δψm significantly
nature of the action (cytostatic / cytotoxic) ([5]; HCT-116): cytostatic and not cytotoxic
reduction of the number of cells ([5]; HCT-116, 25 nM, 24 hours of treatment): 40%
cell viability (trypan blue) ([5]; HCT-116, 24, 48 and 72 hrs): lack of modification of cell viability
inhibition of the number of cells ([5]; HCT-116, from 48 hours, concentrations greater than the IC50): up to 80%
activity of caspases 3 and 7 [6]: lack of variations in the activity of these enzymes
expression of the protein FOXO3 ([7]; 5 nM to 100 nm): stimulates the expression of the protein FOXO3
expression of the protein peroxiredoxin 1 ([7]; 5 nM to 100 nm): stimulates the expression of the protein peroxiredoxin 1
Akt protein serine 473 phosphorylation ([7]; from the 25 nm concentration): totally suppresses
dose dependence of the effect on intracellular H2O2 ([8]; HCT-116): dose dependent
decrease of the intracellular H2O2 concentration ([8]; HCT-116, 50 nM, 18 hours of treatment): approximately 50%
IC50 [9]: 70 nM
IC50 [10]: 30 nM
IC50 [11]: 45 nM
IC50 [12]: 2000 nM
IC50 [13]: 10000 nM
IC50 [14]: 5000 nM
expression of the protein p21 [15]: no significant effect
expression of protein p27 ([15]; 25 and 50 nM): increase in the expression of protein p27
